Where two headings read alike, the source gives them in different places.
Tested on: panel of 183 cancer cell lines
Assay: Cell panel of 183 cancer cell lines, viability (CTG) at Crown Bioscience
Type: cell-based
Conditions: Homo sapiens
Description: The panel consisted of cell lines with any substitution at position 12 of KRAS, NRAS or HRAS (KRAS(G12X), NRAS(G12X), HRAS(G12X)); substitutions in KRAS, NRAS or HRAS at any position other than 12, 13 and 61 (KRAS(other/VUS), NRAS(other/VUS), HRAS(other/VUS)); other oncogenic mutations in the RAS pathway (ABL1, ALK, ARAF, BRAF, CBL, EGFR, ERBB2, ERBB3, ERBB4, ERRFI1, FGFR1, FGFR2, FGFR3, FGFR4, FLT3, HRAS, IGF1R, JAK2, KIT, MAP2K1, MAP2K2, MAPK1, MET, NF1, NRAS, NTRK1, NTRK2, NTRK3, PDGFRA, PTPN11, RAC1, RAF1, RASA1, RET, RIT1, ROS1 and SOS1); and no oncogenic mutations in the RAS pathway. […] Cells were incubated for 120 h, and cell viability was determined using the CellTiter-Glo Luminescent Cell Viability Assay (CTG) (Promega, G7572) according to the manufacturer’s instructions.

Q: With `CCn1c(-c2cc(N3CCN(C4CC4)CC3)cnc2[C@H](C)OC)c2c3cc(ccc31)-c1csc(n1)C[C@H](NC(=O)[C@H]1[C@@H]3COC[C@@H]31)C(=O)N1CCC[C@H](N1)C(=O)OCC(C)(C)C2` [RMC-7977] as the compound, how does the EC50 (read-out: RMC-7977 EC50 (M), HEP3B217, RAS pathway WT, Liver) read?
A: 9.36e-09 M

Q: And the EC50 (read-out: RMC-7977 EC50 (M), HM7, KRAS G12D, Large intestine/Colorectum)?
A: 1.86e-08 M

Q: What about the EC50 (read-out: RMC-7977 EC50 (M), HS852T, NRAS G12V, Skin) of the same compound?
A: 4.07e-08 M

Q: What about the EC50 (read-out: RMC-7977 EC50 (M), HUH28, PTPN11 mut, Liver/Bile duct) of the same compound?
A: 3.91e-08 M

Q: And the EC50 (read-out: RMC-7977 EC50 (M), KG1, FGFR fusion, Blood/leukemia)?
A: 9.16e-09 M

Q: And the EC50 (read-out: RMC-7977 EC50 (M), L82, ALK fusion, Blood/lymphoma)?
A: 2e-08 M

Q: What about the EC50 (read-out: RMC-7977 EC50 (M), NOZ, KRAS G12V, Liver/Bile duct) of the same compound?
A: 4.17e-09 M

Q: And the EC50 (read-out: RMC-7977 EC50 (M), OZ, KRAS Q61L, Liver/Bile duct)?
A: 3.55e-09 M

Q: And the EC50 (read-out: RMC-7977 EC50 (M), PC9, EGFR mut, Lung)?
A: 1.56e-08 M

Q: What about the EC50 (read-out: RMC-7977 EC50 (M), RBE, KRAS G12V, Liver/Bile duct) of the same compound?
A: 3.39e-10 M

Q: And the EC50 (read-out: RMC-7977 EC50 (M), RKO, BRAF V600E, Large intestine/Colorectum)?
A: > 1e-06 M

Q: What about the EC50 (read-out: RMC-7977 EC50 (M), RT4, FGFR fusion, Bladder) of the same compound?
A: 1.32e-08 M

Q: And the EC50 (read-out: RMC-7977 EC50 (M), SCH, RAS pathway WT, Stomach)?
A: > 1e-06 M

Q: And the EC50 (read-out: RMC-7977 EC50 (M), SNU719, NRAS Q61L, Stomach)?
A: 6.76e-09 M

Q: And the EC50 (read-out: RMC-7977 EC50 (M), SNU2535, ALK fusion, Lung)?
A: 6.42e-09 M

Q: What about the EC50 (read-out: RMC-7977 EC50 (M), SNUC2A, KRAS G12D, Large intestine/Colorectum) of the same compound?
A: 2.45e-09 M

Q: What about the EC50 (read-out: RMC-7977 EC50 (M), SR, ALK fusion, Thymus) of the same compound?
A: 1.41e-08 M

Q: And the EC50 (read-out: RMC-7977 EC50 (M), T24, HRAS G12V, Bladder)?
A: 1.2e-09 M

Q: And the EC50 (read-out: RMC-7977 EC50 (M), T84, KRAS G13D, Large intestine/Colorectum)?
A: 5.62e-08 M

Q: And the EC50 (read-out: RMC-7977 EC50 (M), TE441T, RAS pathway WT, Muscle)?
A: > 1e-06 M

Q: And the EC50 (read-out: RMC-7977 EC50 (M), TJ905, NF1 LOF, Brain&Nerves)?
A: 1.06e-07 M

Q: And the EC50 (read-out: RMC-7977 EC50 (M), YCC2, KRAS G12S, Stomach)?
A: 2.19e-09 M

Q: What about the EC50 (read-out: RMC-7977 EC50 (median), median over ALK fusion cell lines) of the same compound?
A: 1.41e-08 M

Q: What about the EC50 (read-out: RMC-7977 EC50 (median), median over BRAF V600E cell lines) of the same compound?
A: > 1e-06 M

Q: What about the EC50 (read-out: RMC-7977 EC50 (median), median over BRAF mut other cell lines) of the same compound?
A: 7.54e-08 M

Q: And the EC50 (read-out: RMC-7977 EC50 (median), median over EGFR mut cell lines)?
A: 4.52e-09 M

Q: What about the EC50 (read-out: RMC-7977 EC50 (median), median over ERBB3 mut cell lines) of the same compound?
A: 5.92e-09 M

Q: What about the EC50 (read-out: RMC-7977 EC50 (median), median over FGFR fusion cell lines) of the same compound?
A: 7.08e-09 M

Q: What about the EC50 (read-out: RMC-7977 EC50 (median), median over HRAS G12D cell lines) of the same compound?
A: 8.45e-09 M

Q: And the EC50 (read-out: RMC-7977 EC50 (median), median over HRAS G12V cell lines)?
A: 1.2e-09 M

Q: And the EC50 (read-out: RMC-7977 EC50 (median), median over HRAS G161R cell lines)?
A: > 1e-06 M

Q: And the EC50 (read-out: RMC-7977 EC50 (median), median over HRAS L133R cell lines)?
A: 1.23e-08 M

Q: And the EC50 (read-out: RMC-7977 EC50 (median), median over HRAS Q61H cell lines)?
A: 4.57e-09 M

Q: And the EC50 (read-out: RMC-7977 EC50 (median), median over HRAS Q61L cell lines)?
A: 1.62e-08 M

Q: What about the EC50 (read-out: RMC-7977 EC50 (median), median over KRAS A59T cell lines) of the same compound?
A: 1.02e-09 M

Q: What about the EC50 (read-out: RMC-7977 EC50 (median), median over KRAS G12A cell lines) of the same compound?
A: 1.2e-08 M

Q: What about the EC50 (read-out: RMC-7977 EC50 (median), median over KRAS G12C cell lines) of the same compound?
A: 1.84e-09 M

Q: What about the EC50 (read-out: RMC-7977 EC50 (median), median over KRAS G12D cell lines) of the same compound?
A: 2.86e-09 M

Q: And the EC50 (read-out: RMC-7977 EC50 (median), median over KRAS G12R cell lines)?
A: 2.76e-09 M

Q: What about the EC50 (read-out: RMC-7977 EC50 (median), median over KRAS G12S cell lines) of the same compound?
A: 3.21e-09 M

Q: And the EC50 (read-out: RMC-7977 EC50 (median), median over KRAS G12V cell lines)?
A: 1.15e-09 M

Q: What about the EC50 (read-out: RMC-7977 EC50 (median), median over KRAS G13C cell lines) of the same compound?
A: 1.41e-08 M

Q: What about the EC50 (read-out: RMC-7977 EC50 (median), median over KRAS G13D cell lines) of the same compound?
A: 3.16e-08 M

Q: And the EC50 (read-out: RMC-7977 EC50 (median), median over KRAS P121H cell lines)?
A: > 1e-06 M

Q: What about the EC50 (read-out: RMC-7977 EC50 (median), median over KRAS Q61H cell lines) of the same compound?
A: > 1e-06 M

Q: And the EC50 (read-out: RMC-7977 EC50 (median), median over KRAS Q61K cell lines)?
A: 3.22e-09 M

Q: And the EC50 (read-out: RMC-7977 EC50 (median), median over KRAS Q61L cell lines)?
A: 9e-09 M

Q: What about the EC50 (read-out: RMC-7977 EC50 (median), median over KRAS R97I cell lines) of the same compound?
A: 2.75e-09 M

Q: What about the EC50 (read-out: RMC-7977 EC50 (median), median over MET amp cell lines) of the same compound?
A: 4.57e-09 M

Q: What about the EC50 (read-out: RMC-7977 EC50 (median), median over NF1 LOF cell lines) of the same compound?
A: 3.25e-08 M

Q: What about the EC50 (read-out: RMC-7977 EC50 (median), median over NRAS G12V cell lines) of the same compound?
A: 4.07e-08 M

Q: What about the EC50 (read-out: RMC-7977 EC50 (median), median over NRAS Q61K cell lines) of the same compound?
A: 1.91e-09 M

Q: What about the EC50 (read-out: RMC-7977 EC50 (median), median over NRAS Q61L cell lines) of the same compound?
A: 6.76e-09 M

Q: And the EC50 (read-out: RMC-7977 EC50 (median), median over NRAS Q61R cell lines)?
A: 9.12e-09 M

Q: What about the EC50 (read-out: RMC-7977 EC50 (median), median over NRAS Y137H cell lines) of the same compound?
A: 2.88e-08 M

Q: What about the EC50 (read-out: RMC-7977 EC50 (median), median over NTRK1 fusion cell lines) of the same compound?
A: 5.14e-09 M

Q: What about the EC50 (read-out: RMC-7977 EC50 (median), median over PTPN11 mut cell lines) of the same compound?
A: 7.95e-09 M

Q: What about the EC50 (read-out: RMC-7977 EC50 (median), median over RAS pathway WT cell lines) of the same compound?
A: 1e-07 M

Q: What about the EC50 (read-out: RMC-7977 EC50 (median), median over RET fusion cell lines) of the same compound?
A: 5.15e-09 M

Q: And the EC50 (read-out: RMC-7977 EC50 (median), median over ROS1 fusion cell lines)?
A: 7.49e-09 M

From paper PMC11111408, “Concurrent inhibition of oncogenic and wild-type RAS-GTP for cancer therapy” (Nature, 2024)
